From patent US5677282A (Proscript, Inc., priority 1995, dated 1997)
pKi: −log10 of the molar value.

How the values were obtained:
Type in all cases: biochemical
92 kD gelatinase = 92 kD gelatinase (Homo sapiens, UniProt P14780); assay: Assay of 92 KD gelatinase inhibition activity; conditions: 92KD gelatinase 25 pM, H-150 buffer pH 7.4; read-out: Ki(app)
Experimental: H-150 buffer, pH 7.4, was prepared by CaCl2 H2 O (1.47 grams), NaCl (8.77 grams) and N-[2-hydroxyethyl]piperazine-N'-[2-ethanesulfonic acid](23.83 grams) to distilled and deionized water and then bring the final volume of the solution to 1 liter. A reaction mixture having a final volume of 500 μL was prepared with H-150 buffer, 200 μgrams of Pro-92KD gelatinase (Strongin et al., J. Biol. Chem., 268:14033 (1993); Goldberg, et al., J. Biol. Chem., 267:4583 (1992); Okada et al., J. Biol. Chem. 267:21712 (1992)), p-aminophenyl mercuric acetate (Sigma Chemical Co., St. Louis, Mo.) (1 mM) and Brij (dodexylpoly(oxyethyleneglycolether))(0,008% w/v). The reaction mixture wsa then incubated for 24 hours at 37° C.
The reaction mixture was applied to a NAP-5 column (G-25 SEPHADEX™, Pharmacia). Fractions containing 72KD gelatinase were identified using 12% polyacrylamide gel electrophoresis and concentrated to about 100-200 μliters by centrifigation (5000 g, 1 hour).
(§1) A solution containing H-150 buffer (2.0 mL), 92KD gelatinase (25 pM) and ethylphenolpoly(ethylene-glycolether)n (Boerhringer Mannheim) (4.0 μM) was prepared in a stirred cuvette. Coumarin peptide substrate (4 μL of a 5 mM solution in dimethyl sulfoxide) was added to the reaction mixture. The rate of hydrolysis was determined for about 100-200 seconds by measuring the fluorescence of the reaction at ex328 nanometers and […] using a Hitachi F-2000 Fluorescence Spectrophotometer.
(§2) 2 μL of a 10 mM inhibitor stock solution (in dimethyl sulfoxide) is added and the reduction in the rate of hydrolysis is determined. Additional 2 μL aliquots of the stock inhibitor solution is added until a 30% to 70% inhibition is observed. Ki is calculated on the assumption of simple competitive inhibition and that the substrate concentration is much less than Km.

stromelysin = stromelysin (Homo sapiens, UniProt P08254); assay: Assay of stromelysin inhibition activity (fluorogenic coumarin peptide substrate); conditions: trypsin-activated stromelysin 2 nM, H-150 buffer pH 7.4, room temperature; read-out: Ki(app)
Experimental: Stromelysin was first activated with trypsin. This was done by preparing a reaction mixture in H-150 (H-150 consists of 10 mM CaCl2, 150 mM NaCl and 100 mM HEPES at pH 7.4) containing a final concentration of 25 μg/mL trypsin and 2.2 μM of stromelysin (Marcy et al., Biochemistry,30:6476 (1991); Koklitis et al., Biochem. J., 376:217 (1991). The reaction was incubated for 30 minutes at 37° C. and then quenched by adding trypsin inhibitor agarose to the reaction mixture at a 20 fold excess with respect to trypsin.
The reaction mixture was centrifuged at 14,000 rpm (16,000 ×g) for 30 minutes using an Eppendorf Centrifuge 5415C. The supernant, which contains activated stromelysin, was concentrated with a Centricon 10 (5000 g, 1 hour). A sample was analyzed by Bradford total protein assay and 12% SDS polyacrylamide gel electrophoresis.
All steps of the stromelysin inhibition assay were performed at room temperature. Assay solutions were prepared for each inhibitor tested. Activated stromelysin was added to a stirred covelte to a final concentration of 2 nM in 2 mL of H-150 buffer. 4 μL 5 mM coumarin peptide substrate was dissolved in DMSO and the initial rate of hydrolysis was measured for 100-200 seconds.
Substrate hydrolysis was assessed by fluorescence using a slit width of 10:10, excitation at 328 nm and emission at 393 nm. Ki was calculated based on the assumption of simple competitive inhibition and a substrate concentration much less than Km. 2 μL of 10 mM inhibitor in DMSO was added and the reduction in hydrolysis rate measured. The addition of 2 μL of inhibitor was continued until a 30-70% inhibition was observed.

[1] = biological target: human neutrophil collagenase (Homo sapiens, UniProt P22894); assay: Assay of human neutrophil collagenase inhibition activity; conditions: human neutrophil collagenase 2 nM, H-150 buffer pH 7.4; read-out: Ki(app)
Experimental: H-150 buffer, pH 7.4, was prepared by adding CaCl2 H2 O (1.47 grams), NaCl (8.77 grams) and N-[2-hydroxyethyl]piperazine-N'-[2-ethanesulfonic acid] (23.83 grams) to distilled and deionized water and then bringing the final volume of the solution to 1 liter.
A reaction mixture with a final volume of 2.0 mL was prepared from H-150 buffer, human neutrophil collagenase (Schnierer, et al., Blochem. Biophys. Res. Comm., 191:319 (1993); Knight et al., Federation of Europena Biochemical Societies 296:263 (1992)) (2 nM). Coumarin peptide substrate (4 μL of a 5 mM solution in dimethyl sulfoxide) was added to the reaction mixture. The rate of hydrolysis was determined for about 100-200 seconds by measuring the fluorescence of the reaction at ex328 nanometers and […] using a Hitachi F-2000 Fluorescence Spectrophotometer.
as §2

72 kD gelatinase = biological target: T1, 72 kD gelatinase (Homo sapiens, UniProt P08253); assay: Assay of 72 KD gelatinase inhibition activity; conditions: 72KD gelatinase 180 pM, H-150 buffer pH 7.4; read-out: Ki(app)
T1 sequence (P08253 110-660): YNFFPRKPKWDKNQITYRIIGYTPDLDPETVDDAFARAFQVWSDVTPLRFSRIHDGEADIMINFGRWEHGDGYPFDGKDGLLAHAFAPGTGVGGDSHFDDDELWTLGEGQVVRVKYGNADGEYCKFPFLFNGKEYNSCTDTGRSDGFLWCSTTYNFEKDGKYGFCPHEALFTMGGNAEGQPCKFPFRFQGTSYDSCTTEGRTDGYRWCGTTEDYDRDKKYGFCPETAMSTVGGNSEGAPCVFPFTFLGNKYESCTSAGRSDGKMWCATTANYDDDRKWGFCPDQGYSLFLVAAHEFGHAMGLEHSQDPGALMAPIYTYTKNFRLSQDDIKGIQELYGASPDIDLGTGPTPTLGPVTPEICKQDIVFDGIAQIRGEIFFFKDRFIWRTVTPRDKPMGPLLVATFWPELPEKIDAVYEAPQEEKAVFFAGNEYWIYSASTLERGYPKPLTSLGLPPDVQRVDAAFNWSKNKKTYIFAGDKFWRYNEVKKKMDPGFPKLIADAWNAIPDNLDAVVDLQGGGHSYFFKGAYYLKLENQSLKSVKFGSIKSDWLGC
Experimental: H-150 buffer, pH 7.4, was prepared by CaCl2 H2O (1.47 grams), NaCl (8.77 grams) and N-[2 -hydroxyethyl]piperazine-N'-[2-ethanesulfonic acid](23.83 grams) to distilled and deionized water and then bring the final volume of the solution to 1 liter. An reaction mixture having a final volume of 250 μL was prepared with H-150 buffer, 40 μgrams of Pro-72KD gelatinase (Strongin, et al., J. Biol. Chem. 268:14033 (1993); Goldberg, et al., J. Biol. Chem., 267:4583 (1992); Kleiner, et al., Biochemistry 32:1583 (1993)) and p-aminophenyl mercuric acetate (Sigma Chemical Co., St. Louis, Mo.) (1 mM). The reaction mixture was then incubated for 3 hours at 25° C.
The reaction mixture was applied to a NAP-5 column (G-25 SEPHADEX™, Pharmacia). Fractions containing […] were identified using 12% SDS polyacrylamide gel electrphoresis and concentrated to about 100-200 μliters by centrifigation (5000 g, 15 minutes).
as §1, with “mL), 72KD” for “mL), 92KD”, “gelatinase (180” for “gelatinase (25”, “Mannheim) (1.3” for “Mannheim) (4.0”, “substrate (2” for “substrate (4”, “a 1” for “a 5”
as §2

human neutrophil collagenase, sequence (P22894 101-467): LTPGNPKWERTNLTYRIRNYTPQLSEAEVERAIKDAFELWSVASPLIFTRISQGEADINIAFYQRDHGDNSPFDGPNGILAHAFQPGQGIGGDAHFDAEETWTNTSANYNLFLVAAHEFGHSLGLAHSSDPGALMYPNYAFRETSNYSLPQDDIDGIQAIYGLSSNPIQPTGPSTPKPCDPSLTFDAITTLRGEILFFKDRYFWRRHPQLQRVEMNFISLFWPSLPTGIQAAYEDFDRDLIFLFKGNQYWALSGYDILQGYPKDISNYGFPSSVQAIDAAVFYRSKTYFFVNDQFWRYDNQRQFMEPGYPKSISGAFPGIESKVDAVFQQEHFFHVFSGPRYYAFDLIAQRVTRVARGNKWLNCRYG
92 kD gelatinase, sequence (P14780 107-707): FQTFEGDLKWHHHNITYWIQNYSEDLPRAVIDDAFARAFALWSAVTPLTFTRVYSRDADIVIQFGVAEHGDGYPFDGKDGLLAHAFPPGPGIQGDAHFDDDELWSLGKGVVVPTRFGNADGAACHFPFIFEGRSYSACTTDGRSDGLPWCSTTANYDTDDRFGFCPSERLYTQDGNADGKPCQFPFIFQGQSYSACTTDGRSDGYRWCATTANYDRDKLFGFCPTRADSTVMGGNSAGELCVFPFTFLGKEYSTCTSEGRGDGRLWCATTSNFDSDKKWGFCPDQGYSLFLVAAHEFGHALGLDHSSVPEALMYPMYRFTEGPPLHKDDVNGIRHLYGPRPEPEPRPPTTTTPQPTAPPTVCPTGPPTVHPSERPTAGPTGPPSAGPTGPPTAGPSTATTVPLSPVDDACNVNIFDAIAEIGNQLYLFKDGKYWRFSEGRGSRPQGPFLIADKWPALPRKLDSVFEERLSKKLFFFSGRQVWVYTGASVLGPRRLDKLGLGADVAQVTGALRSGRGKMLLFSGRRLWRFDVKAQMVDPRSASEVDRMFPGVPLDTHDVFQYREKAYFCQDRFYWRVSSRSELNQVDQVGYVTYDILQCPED
stromelysin, sequence (P08254 100-477): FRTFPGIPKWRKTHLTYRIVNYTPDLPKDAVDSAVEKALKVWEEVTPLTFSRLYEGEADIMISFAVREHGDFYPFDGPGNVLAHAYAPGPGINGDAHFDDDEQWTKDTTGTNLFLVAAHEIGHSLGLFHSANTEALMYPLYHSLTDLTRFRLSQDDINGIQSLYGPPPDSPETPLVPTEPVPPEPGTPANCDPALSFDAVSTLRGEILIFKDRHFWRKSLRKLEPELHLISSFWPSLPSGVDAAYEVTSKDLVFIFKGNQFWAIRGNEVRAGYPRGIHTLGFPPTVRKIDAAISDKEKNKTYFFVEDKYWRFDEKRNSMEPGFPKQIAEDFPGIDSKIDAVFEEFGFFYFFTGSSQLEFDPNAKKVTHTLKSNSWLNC

| SMILES | pKi (92 kD gelatinase) | pKi (stromelysin) | pKi [1] | pKi (72 kD gelatinase) |
| --- | --- | --- | --- | --- |
| CC(C)[C@H](NC(=O)[C@H](CSCc1ccccc1)NC(=O)OCc1ccccc1)C(=O)Nc1n[nH]c(=S)s1 [5-(N-benzyloxycarbonyl-((S-benzyl)cysteinyl)-valylamino)-1,3,4-thiadiazole-2-thione] | 8.68 | 6.69 | 8.49 | 8.96 |
| CC(C)C(NC(=O)C(Cc1ccc(NC(=O)OCc2ccccc2)cc1)NC(=O)OCc1ccccc1)C(=O)Nc1n[nH]c(=S)s1 (centres unmarked) [5-(N-benzyloxycarbonyl-((p-benzyloxycarbonylamino)phenyl-alanyl)-valylamino)-1,3,4-thiadiazole-2-thione] | 9.84 | 7.21 | 8.93 | 9.54 |
| O=C(CCC(NC(=O)OCc1ccccc1)C(=O)NC(C(=O)Nc1n[nH]c(=S)s1)c1ccccc1)NCCc1ccccc1 (centres unmarked) [5-(N-benzyloxycarbonyl-(γ-N-2-phenylethyl)glutamylphenylglycylamino)-1,3,4-thiadiazole-2-thione] | 9.77 | 7.24 | 9.27 | 9.28 |

Now from value to molecule:

| pKi (92 kD gelatinase) | pKi (stromelysin) | pKi [1] | pKi (72 kD gelatinase) | SMILES |
| --- | --- | --- | --- | --- |
| 8.44 | 5.95 | 8.11 | 8.77 | CSCC[C@H](NC(=O)[C@H](Cc1ccccc1)NC(=O)OCc1ccccc1)C(=O)Nc1n[nH]c(=S)s1 [5-(N-benzyloxycarbonyl-phenylalanyl-methionylamino)-1,3,4-thiadiazole-2-thione] |
| 9.44 | 7.22 | 8.62 | 9.15 | CC(C)[C@H](NC(=O)[C@H](Cc1c[nH]c2ccccc12)NC(=O)[C@H](Cc1ccccc1)NC(=O)OCc1ccccc1)C(=O)Nc1n[nH]c(=S)s1 [5-(N-benzyloxycarbonyl-phenylalanyl-tryptonyl-valylamino)-1,3,4-thiadiazole-2-thione] |
